These results are taken from ChEMBL document CHEMBL3774317, “Design and synthesis of novel tamoxifen analogues that avoid CYP2D6 metabolism” (Eur J Med Chem, 2016).

Holding throughout (type): functional
One experiment relates to M14. Kind of experiment: Cytotoxicity against human M14 cells assessed as cell growth at 10^-7 M after 48 hrs by SRB assay. The conditions noted are these: M14, 48 h, read-out: Activity.
Experiment [1] can be described thus: Cytotoxicity against human SKOV3 cells assessed as cell growth at 10^-7 M after 48 hrs by SRB assay. The conditions noted are these: SK-OV-3, 48 h, read-out: Activity.
Experiment [2] is described as follows: Cytotoxicity against human Caki1 cells assessed as cell growth at 10^-4 M after 48 hrs by SRB assay. The conditions noted are these: CAKI-1, 48 h, read-out: Activity.
Experiment [3] can be described thus: Cytotoxicity against human TK10 cells assessed as cell growth at 10^-4 M after 48 hrs by SRB assay. To be noted: TK-10, 48 h, read-out: Activity.
Experiment [4] can be described thus: Cytotoxicity against human OVCAR3 cells assessed as cell growth at 10^-6 M after 48 hrs by SRB assay. To be noted: OVCAR-3, 48 h, read-out: Activity.
For experiment [5], the system named is ACHN. Kind of experiment: Cytotoxicity against human ACHN cells assessed as cell growth at 10^-6 M after 48 hrs by SRB assay. To be noted: read-out: Activity.
Experiment [6] is described as follows: Cytotoxicity against human TK10 cells assessed as cell growth at 10^-6 M after 48 hrs by SRB assay. The conditions noted are these: TK-10, 48 h, read-out: Activity.
The test system of a further experiment is SR. Description: Cytotoxicity against human SR cells assessed as cell growth at 10^-5 M after 48 hrs by SRB assay. The conditions noted are these: read-out: Activity.
Experiment [7] can be described thus: Cytotoxicity against human HOP92 cells assessed as cell growth at 10^-5 M after 48 hrs by SRB assay. The conditions noted are these: HOP-92, 48 h, read-out: Activity.
A short description of experiment [8]: Cytotoxicity against human HCT15 cells assessed as cell growth at 10^-5 M after 48 hrs by SRB assay. The conditions noted are these: HCT-15, 48 h, read-out: Activity.
In experiment [9] the test system is NCI-H322M. Description: Cytotoxicity against human NCI-H322M cells assessed as cell growth at 10^-8 M after 48 hrs by SRB assay. The conditions noted are these: read-out: Activity.
Another experiment concerns KM12. Kind of experiment: Cytotoxicity against human KM12 cells assessed as cell growth at 10^-8 M after 48 hrs by SRB assay. The conditions noted are these: KM12, 48 h, read-out: Activity.
Experiment [10] is described as follows: Cytotoxicity against human OVCAR3 cells assessed as cell growth at 10^-8 M after 48 hrs by SRB assay. The conditions noted are these: OVCAR-3, 48 h, read-out: Activity.
Experiment [11] in a line: Cytotoxicity against human OVCAR4 cells assessed as cell growth at 10^-8 M after 48 hrs by SRB assay. To be noted: OVCAR-4, 48 h, read-out: Activity.
Experiment [12] deals with EKVX. Description: Cytotoxicity against human EKVX cells assessed as cell growth at 10^-7 M after 48 hrs by SRB assay. The conditions noted are these: read-out: Activity.
The next experiment concerns NCI-H226. Description: Cytotoxicity against human NCI-H226 cells assessed as cell growth at 10^-7 M after 48 hrs by SRB assay. To be noted: NCI-H226, 48 h, read-out: Activity.
The subject of experiment [13] is NCI-H322M. Kind of experiment: Cytotoxicity against human NCI-H322M cells assessed as cell growth at 10^-7 M after 48 hrs by SRB assay. To be noted: read-out: Activity.
Experiment [14] is described as follows: Cytotoxicity against human NCI-ADR-RES cells assessed as cell growth at 10^-5 M after 48 hrs by SRB assay. The conditions noted are these: read-out: Activity.
The next experiment relates to 786-0. Description: Cytotoxicity against human 786-0 cells assessed as cell growth at 10^-5 M after 48 hrs by SRB assay. The conditions noted are these: 786-0, 48 h, read-out: Activity.
A short description of experiment [15]: Cytotoxicity against human DU145 cells assessed as cell growth at 10^-5 M after 48 hrs by SRB assay. To be noted: DU-145, 48 h, read-out: Activity.
Experiment [16] can be described thus: Cytotoxicity against human BT549 cells assessed as cell growth at 10^-5 M after 48 hrs by SRB assay. The conditions noted are these: BT-549, 48 h, read-out: Activity.
Experiment [17] has as its system EKVX. Description: Cytotoxicity against human EKVX cells assessed as cell growth at 10^-4 M after 48 hrs by SRB assay. The conditions noted are these: read-out: Activity.
The test system of another experiment is A549. Kind of experiment: Cytotoxicity against human A549 cells assessed as cell growth at 50 nM after 48 hrs by SRB assay. The conditions noted are these: A549, 48 h, read-out: Activity.
The nature of experiment [18]: Cytotoxicity against human HCC2998 cells assessed as cell growth at 50 nM after 48 hrs by SRB assay. To be noted: HCC 2998, 48 h, read-out: Activity.
Experiment [19] can be described thus: Cytotoxicity against human HCT15 cells assessed as cell growth at 50 nM after 48 hrs by SRB assay. To be noted: HCT-15, 48 h, read-out: Activity.
The test system of the next experiment is SK-MEL-28. Description: Cytotoxicity against human SK-MEL-28 cells assessed as cell growth at 50 nM after 48 hrs by SRB assay. To be noted: SK-MEL-28, 48 h, read-out: Activity.
Experiment [20] in a line: Cytotoxicity against human OVCAR3 cells assessed as cell growth at 50 nM after 48 hrs by SRB assay. To be noted: OVCAR-3, 48 h, read-out: Activity.
Experiment [21] in a line: Cytotoxicity against human OVCAR8 cells assessed as cell growth at 50 nM after 48 hrs by SRB assay. The conditions noted are these: OVCAR-8, 48 h, read-out: Activity.
In another experiment the test system is Malme-3M. Kind of experiment: Cytotoxicity against human MALME-3M cells assessed as cell growth at 50 uM after 48 hrs by SRB assay. To be noted: read-out: Activity.
A short description of experiment [22]: Cytotoxicity against human UACC257 cells assessed as cell growth at 50 uM after 48 hrs by SRB assay. To be noted: UACC-257, 48 h, read-out: Activity.
Experiment [23] can be described thus: Cytotoxicity against human SF268 cells assessed as cell growth at 0.5 uM after 48 hrs by SRB assay. The conditions noted are these: SF-268, 48 h, read-out: Activity.
Experiment [24] relates to ACHN. Kind of experiment: Cytotoxicity against human ACHN cells assessed as cell growth at 0.5 uM after 48 hrs by SRB assay. The conditions noted are these: read-out: Activity.
Experiment [25] relates to NCI-H322M. Description: Cytotoxicity against human NCI-H322M cells assessed as cell growth at 5 uM after 48 hrs by SRB assay. To be noted: read-out: Activity.
Experiment [26] is described as follows: Cytotoxicity against human SF295 cells assessed as cell growth at 5 nM after 48 hrs by SRB assay. The conditions noted are these: SF-295, 48 h, read-out: Activity.
A short description of experiment [27]: Cytotoxicity against human SF539 cells assessed as cell growth at 5 nM after 48 hrs by SRB assay. The conditions noted are these: SF-539, 48 h, read-out: Activity.
For a further experiment, the system named is U-251. Description: Cytotoxicity against human U251 cells assessed as cell growth at 5 nM after 48 hrs by SRB assay. To be noted: U-251, 48 h, read-out: Activity.
The subject of another experiment is MDA-MB-231. Description: Cytotoxicity against human MDA-MB-231 cells assessed as cell growth at 5 nM after 48 hrs by SRB assay. To be noted: MDA-MB-231, 48 h, read-out: Activity.
The nature of experiment [28]: Cytotoxicity against human HCT116 cells assessed as cell growth at 5 uM after 48 hrs by SRB assay. The conditions noted are these: HCT-116, 48 h, read-out: Activity.
Experiment [29] deals with ACHN. Kind of experiment: Cytotoxicity against human ACHN cells assessed as cell growth at 5 uM after 48 hrs by SRB assay. The conditions noted are these: read-out: Activity.
Experiment [30] in a line: Cytotoxicity against human DU145 cells assessed as cell growth at 5 uM after 48 hrs by SRB assay. To be noted: DU-145, 48 h, read-out: Activity.
Experiment [31] is described as follows: Cytotoxicity against human MOLT4 cells assessed as cell growth at 50 uM after 48 hrs by SRB assay. To be noted: MOLT-4, 48 h, read-out: Activity.
The nature of experiment [32]: Cytotoxicity against human SW620 cells assessed as cell growth at 50 uM after 48 hrs by SRB assay. The conditions noted are these: SW-620, 48 h, read-out: Activity.

With `C/C(=C(/c1ccc(O)cc1)c1ccc(OCCN2CCCC2)cc1)c1ccccc1`, the growth at 0.1 µM with M14 turned out to be 93%; in experiment [1], 93%; with EKVX [12], 93%; with NCI-H226, 95%; in the experiment with NCI-H322M [13], 95%. For the same molecule, the growth at 100 µM (in experiment [2]; in [3]; with EKVX [17]) was -100% throughout. The growth at 1 µM in experiment [4] amounted to 97%; in the experiment with ACHN [5], 93%; in [6], 95%. Besides, the growth at 10 µM in the experiment on SR is -25%; in [7] it was -13%; in [8], -41%; in experiment [14], 25%; in the experiment with 786-0, -57%; in experiment [15] it was 49%. Besides, the growth at 10 µM in experiment [16] is 24%. Also, the growth at 0.01 µM with NCI-H322M [9] was determined as 97%; with KM12, 102%; in experiment [10], 106%; in experiment [11] it was 90%.
`CCCCCCCCCC(=O)Oc1ccc(/C(=C(/C)c2ccccc2)c2ccc(OCCN3CCCC3)cc2)cc1`: the growth at 0.05 µM is 102% with A549; 98% in [18]; 90% in experiment [19]; 100% in the experiment with SK-MEL-28; 104% in experiment [20]; 101% in [21]. In addition, the growth at 50 µM in the experiment with Malme-3M was -82%; in [22], -91%; in experiment [31] it was -53%; in [32], -97%. Further, the growth at 0.5 µM in experiment [23] was determined as 73%; in the experiment on ACHN [24], 88%. The growth at 5 µM in the experiment on NCI-H322M [25] stood at 85%; in experiment [28], 85%; with ACHN [29] it was 88%; in experiment [30], 88%. For the same molecule, the growth at 0.005 µM in experiment [26] amounted to 94%; in [27], 105%; in the experiment with U-251, 98%; with MDA-MB-231, 99%.
